For one data set, the target named is T1, human DGAT1 (Homo sapiens, UniProt O75907).
T1 construct: FLAG (N); made in house; host or cells: SF9 insect cells (pFastBac baculovirus); total cell membranes
T1 sequence (O75907 1-488): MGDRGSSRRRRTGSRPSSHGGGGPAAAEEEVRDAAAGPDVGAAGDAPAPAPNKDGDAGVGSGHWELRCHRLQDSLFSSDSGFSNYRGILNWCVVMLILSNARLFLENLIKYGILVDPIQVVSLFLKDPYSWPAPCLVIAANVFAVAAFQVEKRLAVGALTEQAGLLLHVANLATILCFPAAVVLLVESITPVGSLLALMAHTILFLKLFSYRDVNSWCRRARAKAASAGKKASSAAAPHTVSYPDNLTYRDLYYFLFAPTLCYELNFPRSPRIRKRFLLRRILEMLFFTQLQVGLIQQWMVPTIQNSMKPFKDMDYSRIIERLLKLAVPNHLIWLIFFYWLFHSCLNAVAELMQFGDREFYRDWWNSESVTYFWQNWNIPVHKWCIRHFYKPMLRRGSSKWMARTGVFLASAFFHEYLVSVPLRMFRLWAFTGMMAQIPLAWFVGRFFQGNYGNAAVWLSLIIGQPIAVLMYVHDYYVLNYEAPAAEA
The experiment in a line: Inhibition of DGAT1 activity, FlashPlate assay with DGAT1 membrane preparations and substrate micelles. It is filed as biochemical. The conditions noted are these: pIC50 = -logIC50, IC50 values expressed in M. An outline of the steps: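 FLAG-tagged human DGAT1 membranes (expressed in Sf9 cells) were incubated 120 min at 37° C. in 50 mM Tris-HCl pH 7.4 with 150 mM MgCl2, 1 mM EDTA, 0.2% BSA, 50 μM DAG micelles (PC/PS) and 8.4 μM [^3H]-oleoylCoA. The reaction was stopped with N-ethylmaleimide and read as FlashPlate radioluminescence. Responses were normalized to enzyme/no-enzyme controls to fit dose-response curves.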

Broadly, the IC50 is the midpoint of a concentration-inhibition curve. What is called melting point is the temperature of the solid-liquid transition. `O=C(CCCc1ccccc1)Nc1ccc(N2CCN(C(=O)Nc3c(F)cc(F)cc3F)CC2)cc1` [Compound 82]: the melting point stood at 173.6 °C. Besides, at human DGAT1, the IC50 was 75.9 nM.
The compound `CCOC(=O)c1ccc(CCCCCNC(=O)c2ccc(N3CCN(C(=O)Nc4c(Cl)cc(CN5CCCC5)cc4Cl)CC3)cc2)cc1` [Compound 226] registered a melting point of 180.97 °C. Besides, at human DGAT1, the IC50 is 9.77 nM.
The matching figures for `O=C(CCCc1ccccc1)Nc1ccc(N2CCN(C(=O)Nc3c(Cl)cc(Cl)cc3Cl)CC2)cc1` [Compound 59]: 234.9 °C and 12.9 nM.
Turning to `CC1CN(CC(=O)Nc2ccc(N3CCN(C(=O)Nc4c(Cl)cccc4Cl)CC3)cc2)CC(C)O1` (stereo not shown) [Compound 37], the melting point was determined as 237.1 °C. On human DGAT1, this compound gave an IC50 of 129 nM.
Regarding `O=C(CCCc1ccccc1)Nc1ccc(N2CCN(C(=O)C(O)c3ccccc3Cl)CC2)cc1` (stereo not shown) [Compound 19], the melting point was 142.3 °C. The IC50 at human DGAT1 was 30.9 nM.
As for `C#CCNC(=O)c1ccc(N2CCN(C(=O)Cc3c(Cl)cccc3Cl)CC2)cc1` [Compound 259], the melting point was determined as 247.07 °C. For the same compound, the IC50 against human DGAT1 is 1350 nM.
Consider `O=C(COC(=O)c1ccccc1)Nc1ccc(N2CCN(C(=O)Nc3c(Cl)cc(CN4CCCC4)cc3Cl)CC2)cc1` [Compound 304], for which the melting point turned out to be 243.74 °C. In addition, at human DGAT1, the IC50 is 21.9 nM.
For the compound `CC(NCCCN(C)C)c1cc(Cl)c(NC(=O)N2CCN(c3ccc(NC(=O)CCCc4ccccc4)cc3)CC2)c(Cl)c1` (stereo not shown) [Compound 54], the melting point is 125.4 °C. At human DGAT1, the IC50 is 23.4 nM.
`COc1ccc(CCNC(=O)c2ccc(N3CCN(C(=O)Nc4c(Cl)cc(CN5CCCC5)cc4Cl)CC3)cc2F)cc1` [Compound 246] gave a melting point of 235 to 237 °C. In addition, on human DGAT1, the IC50 was 151 nM.
In the same order, the values of `O=C(CCc1ccncc1)Nc1ccc(N2CCN(C(=O)Nc3c(Cl)cccc3Cl)CC2)cc1` [Compound 193] are 263 to 264 °C and 339 nM.
On to `CC(C)(C)c1ccccc1NC(=O)N1CCN(c2ccc(NC(=O)CCCc3ccccc3)cc2)CC1` [Compound 89], for which the melting point came out at 227.2 °C. Further, at human DGAT1, the IC50 is 2190 nM.
`O=C(CCCc1ccccc1)Nc1ccc(N2CCN(C(=O)Nc3c(Cl)ccc4c3CCO4)CC2)cc1` [Compound 12] registered a melting point of 209.8 °C. On human DGAT1, this compound had an IC50 of 182 nM.
`CN(CC(=O)Nc1ccc(N2CCN(C(=O)Nc3c(Cl)cccc3Cl)CC2)cc1)C(=O)NC(C)(C)C` [Compound 165] had a melting point of 214 to 215 °C. Half-maximal inhibition against human DGAT1 (IC50) required 64.6 nM.
In turn, `O=C(CCCc1ccccc1)Nc1ccc(N2CCN(C(=O)Nc3ccccc3I)CC2)cc1` [Compound 78] yielded a melting point of 153.3 °C. Also, on human DGAT1, half-maximal inhibition (IC50) was put at 126 nM.
In turn, `CCCCCCC(=O)Nc1ccc(N2CCN(C(=O)Nc3c(Cl)cccc3Cl)CC2)cc1` [Compound 8] came in with a melting point of 245.1 °C. This compound also gave an IC50 against human DGAT1 of 8.91 nM.
Take `COc1ccc(CNC(=O)c2ccc(N3CCN(C(=O)Nc4c(Cl)cc(CC(=O)N5CCN(C)CC5)cc4Cl)CC3)cc2)cc1` [Compound 228]: the melting point came to 220.01 °C. Besides, the IC50 against human DGAT1 was 19.1 nM.
`O=C(CCCc1ccccc1)Nc1ccc(N2CCN(C(=O)Nc3ccccc3Br)CC2)cc1` [Compound 95] displayed a melting point of 147.4 °C. The same compound had a half-inhibitory concentration (IC50) against human DGAT1 of 126 nM.
The compound `CS(=O)(=O)N1CCN(CC(=O)Nc2ccc(N3CCN(C(=O)Nc4c(Cl)cccc4Cl)CC3)cc2)CC1` [Compound 26] yielded a melting point of 232 to 234 °C. Further, 692 nM corresponded to half-maximal inhibition on human DGAT1 (IC50).
The matching figures for `COc1cc(Cl)c(NC(=O)N2CCN(c3ccc(NC(=O)CNc4ccc(C)cc4C)cc3)CC2)c(Cl)c1` [Compound 31]: 175 to 176 °C and 4.47 nM.
As for `O=C(CCOc1ccccc1)Nc1ccc(N2CCN(C(=O)Nc3c(Cl)cccc3Cl)CC2)cc1` [Compound 3], the melting point is 268.2 °C. This compound gave a 50% inhibitory concentration (IC50) against human DGAT1 of 7.59 nM.
In the same order, the values of `Cc1ccc(NC(=O)N2CCN(c3ccc(NC(=O)CCCc4ccccc4)cc3)CC2)c(C)c1` [Compound 66] are 181.7 °C and 26.9 nM.
The matching figures for `CC(O)c1cc(Cl)c(NC(=O)N2CCN(c3ccc(NC(=O)CCCc4ccccc4)cc3)CC2)c(Cl)c1` (stereo not shown) [Compound 29]: 187.3 °C and 3.98 nM.
On to `O=C(CC(=O)OCc1ccccc1)Nc1ccc(N2CCN(C(=O)Nc3c(Cl)cc(CN4CCCC4)cc3Cl)CC2)cc1` [Compound 307], for which the melting point was determined as 206.22 °C. Moreover, at human DGAT1, half-maximal inhibition (IC50) required 29.5 nM.
In the case of `Cc1ccc(CNCC(=O)Nc2ccc(N3CCN(C(=O)Nc4c(Cl)cccc4Cl)CC3)cc2)c(C)c1` [Compound 181], the melting point lay within 163 to 165 °C. On human DGAT1, this compound showed an IC50 of 75.9 nM.
In the case of `Cc1ccc(NCC(=O)Nc2ccc(N3CCN(C(=O)Nc4c(Cl)cccc4Cl)CC3)cc2)c(C)c1` [Compound 22], the melting point was in the range of 248 to 249 °C. This compound also had an IC50 against human DGAT1 of 14.8 nM.
Compound `CN(Cc1ccccc1)C(=O)c1ccc(N2CCN(C(=O)Nc3c(Cl)cc(CN4CCCC4)cc3Cl)CC2)cc1` [Compound 266] yielded a melting point of 161.47 °C. At human DGAT1, this compound showed an IC50 of 6170 nM.
The compound `Cc1ccccc1NC(=O)N1CCN(c2ccc(NC(=O)CCCc3ccccc3)cc2)CC1` [Compound 96] returned a melting point of 164.7 °C. This compound showed an IC50 against human DGAT1 of 75.9 nM.
With `CCOC(=O)CC(=O)Nc1ccc(N2CCN(C(=O)Nc3c(Cl)cccc3Cl)CC2)cc1` [Compound 50], the melting point turned out to be 219.9 °C. Inhibition on human DGAT1 was half-maximal at 95.5 nM (IC50).
Regarding `O=C(CCCC(=O)OCc1ccccc1)Nc1ccc(N2CCN(C(=O)Nc3c(Cl)cc(CN4CCCCC4)cc3Cl)CC2)cc1` [Compound 292], the melting point lay within 180 to 181 °C. On human DGAT1, this compound showed an IC50 of 10.7 nM.
`COc1ccc(CN(C)C(=O)c2ccc(N3CCN(C(=O)Nc4c(Cl)cc(CN5CCCC5)cc4Cl)CC3)cc2)cc1` [Compound 263] registered a melting point of 132.84 °C. This compound gave an IC50 against human DGAT1 of 3720 nM.
`Cc1ccccc1CNC(=O)c1ccc(N2CCN(C(=O)Cc3c(Cl)cccc3Cl)CC2)cc1` [Compound 233] displayed a melting point of 244.09 °C. The compound also gave an IC50 against human DGAT1 of 50.1 nM.
The matching figures for `O=C(NCC1CCOCC1)c1ccc(N2CCN(C(=O)Nc3c(Cl)cc(CN4CCCC4)cc3Cl)CC2)cc1` [Compound 264]: 223.77 °C and 3980 nM.
For the compound `O=C(NCc1cccnc1)c1ccc(N2CCN(C(=O)Cc3c(Cl)cccc3Cl)CC2)cc1` [Compound 257], the melting point was 242.27 °C. Moreover, the IC50 against human DGAT1 is 661 nM.
In the same order, the values of `COc1ccc(CNC(=O)c2ccc(N3CCN(C(=O)Cc4c(Cl)cccc4Cl)CC3)cc2)c(OC)c1` [Compound 230] are 180.99 °C and 42.7 nM.
Compound `CCOC(=O)CCCC(=O)Nc1ccc(N2CCN(C(=O)Nc3c(Cl)cc(CN4CCCC4)cc3Cl)CC2)cc1` [Compound 322] registered a melting point of 208.65 °C. Further, the IC50 at human DGAT1 was 91.2 nM.
`CCOC(=O)c1ccccc1NC(=O)N1CCN(c2ccc(NC(=O)CCCc3ccccc3)cc2)CC1` [Compound 91] registered a melting point of 194.7 °C. The IC50 against human DGAT1 was 5500 nM.
The matching figures for `CS(=O)(=O)N1CCN(CCC(=O)Nc2ccc(N3CCN(C(=O)Nc4c(Cl)cccc4Cl)CC3)cc2)CC1` [Compound 172]: 250 to 252 °C and 603 nM.
With `COc1ccc(CNCCC(=O)Nc2ccc(N3CCN(C(=O)Nc4c(Cl)cccc4Cl)CC3)cc2)cc1` [Compound 32], the melting point lay within 188 to 189 °C. Further, the IC50 against human DGAT1 was 347 nM.
`Cc1ccc(NCCC(=O)Nc2ccc(N3CCN(C(=O)Nc4c(Cl)cccc4Cl)CC3)cc2)c(C)c1` [Compound 298] displayed a melting point of 241 to 242 °C. Also, at human DGAT1, half-maximal inhibition (IC50) was put at 17.4 nM.
The matching figures for `Cc1cc(C)c(NC(=O)N2CCN(c3ccc(NC(=O)CCCc4ccccc4)cc3)CC2)c(Br)c1` [Compound 11]: 238.7 °C and 6.17 nM.
In the same order, the values of `Cc1cc(C)c(NC(=O)N2CCN(c3ccc(NC(=O)CCCc4ccccc4)cc3)CC2)c(C)c1` [Compound 68] are 223 °C and 12.3 nM.
The matching figures for `O=C(CCCc1ccccc1)Nc1ccc(N2CCN(C(=O)Nc3ccccc3OC(F)(F)F)CC2)cc1` [Compound 84]: 162.2 °C and 1480 nM.
The compound `Cc1ccc(CNCC(=O)Nc2ccc(N3CCN(C(=O)Nc4c(Cl)cc(O)cc4Cl)CC3)cc2)c(C)c1` [Compound 311] returned a melting point of 212 to 213 °C. This compound had an IC50 at human DGAT1 of 43.7 nM.
In the case of `O=C(CCNCc1ccc(F)cc1)Nc1ccc(N2CCN(C(=O)Nc3c(Cl)cccc3Cl)CC2)cc1` [Compound 174], the melting point was in the range of 192 to 193 °C. The same compound gave an IC50 against human DGAT1 of 347 nM.
